Assay results published in patent US5866556A, “Pyridinylbisphosphonates for use as a therapeutical agent” (Leiras Oy, priority 1994, dated 1999).
Like-named read-outs stand apart in the source and are kept apart here.

How the values were obtained:
[1] = tested on: spontaneous bone resorption; test: Effect on spontaneous bone resorption assessed by urinary tetracycline excretion from prelabeled rats; type: in vivo, Sprague-Dawley rat; conditions: for Inhibition of tetracycline excretion: n=5, mean (SE); for Inhibition of excretion of radiolabeled tetracycline / spontaneous bone resorption (in words): rats, s.c.
Method: Male Sprague-Dawley rats were used. From the first week of life, the rats were injected subcutaneously with a solution containing 10 μCi/ml of (7-^3 H(N))tetracycline dissolved in physiological saline. The injections were performed twice weekly for 6 weeks. Every animal received a total amount of 20 μCi radiolabeled tetracycline. All animals were given normal diet for growing animals and water ad libitum. One week after the last injection of radiolabeled tetracycline, the rats were weighed and feeding with diet for adult animals was started. At fifth day the rats were randomized into groups and housed in individual metabolic cages. 24-h urine collections were performed for ten days. From the second day [(2-pyridinylamino)methylidene]bisphosphonic acid tetraethylester, compound I, dissolved in physiological saline was injected subcutaneously at different dose levels daily for six days. Control animals received physiological saline. Urine volume was measured and the radioactivity in urine samples was determined by liquid scintillation counting. The data was calculated as the ratio of treated/control at each day for the determination of maximal inhibition of tetracycline excretion.
Excretion of unmetabolized tetracycline into urine reflects its removal from bone during resorptive processes and thus enables the continual monitoring of bone resorption.

[2] = Pharmacokinetics: urinary excretion of parent compound and bioavailability from urine; type: in vivo, rat; conditions: for Urinary excretion 0-24 h as parent compound / dose excreted at 24 h: single dose 114 mg/kg; for Urinary excretion 0-24 h as parent compound: 1440 min; for dose excreted at 24 h: urine, read-out: Urinary excretion 0-24 h as parent compound
Method: (§1) Pharmacokinetics of the compound [(2-pyridinylamino)methylidene]bisphosphonic acid tetraethylester was studied in rats. Minor amounts of an intravenous dose was excreted as a parent compound during 24 hours into urine supporting extensive metabolism as well. About half of the oral dose of the said compound was absorbed in rats.
(§2) Bioavailability was determined from the total amount of compound excreted into urine during 24 hours or from the serum concentration data at different time points after oral administration and intravenous administration. The urine and serum samples were analyzed for the test compound I with high pressure liquid chromatographic methods. […] Bioavailability of compound I assessed by serum concentration data was 44%.

[3] = tested on: immobilization induced osteoporosis (femur bone area); test: Effect on immobilization induced osteoporosis (sciatic nerve section) in rats; type: in vivo, Sprague-Dawley rat; conditions: for Immobilized leg, femur total bone area: mean (SE), control 5.3 (0.6); for Femoral bone area in the immobilized leg / bone loss prevention (in words): sciatic nerve section
Method: Male Sprague-Dawley rats weighing 200±25 g were randomized by weight into groups and anesthetized with Hypnorm/Mebunat and Temgesic. A dorsolateral incision was made on the right or left hip through which the sciatic nerve was exposed, and a 0.5 cm section excised. The muscle and skin were sutured and the animal returned to its cage. The contralateral leg was left intact. The compound I dissolved in physiological saline was administered by subcutaneous injection daily at different dose levels from two days before the surgery until the day of 20 postneurectomy. Control animals received physiological saline. Animals double-labeled with fluorochrome at standardized time points were sacrificed at 21 days postneurectomy and their femora were removed. Femora were embedded in methylmetacrylate, sectioned, and stained. The metphyseal secondary spongiosa and the diaphyseal cortical bone of the femora were subjected to histomorphometric analysis. In control rats, femural total bone area decreased in the immobilized leg.

[4] = Pharmacokinetics: serum AUC and bioavailability from serum concentration data; type: in vivo; conditions: rat; for AUC(0-inf): single dose 114 mg/kg, read-out: AUC0->.infin.
Method: as §1, §2

[5] = tested on: PTH-stimulated bone resorption, mice calvaria; test: Inhibition of PTH-stimulated resorption of calvarial bone in vitro; type: cell-based, mouse; conditions: for Inhibition of bone resorption in vitro, mice calvaria (in words): except at very high, unphysiological concentrations, calcium release
Method: (§3) Newborn mice were labeled by a subcutaneous injection of ^45 Ca four days prior to sacrifice. Calvarial bone fragments were microdissected from the parietal bones, preincubated in culture medium with indomethacin, washed and then cultured for three days with and without the compound I. Bone resorption was stimulated by parathyroid hormone (PTH, 10 nM) and an inhibitory effect on this stimulated resorption was measured. […] For the determination of the binding of compound I to bone mineral, ^14 C-disodium clodronte tetrahydrate and hydroxyapatite crystals were incubated at room temperature in barbituric acid buffer at physiological pH in the absence and presence of the compound I in various concentrations. After two hours incubation, the mixture was centrifuged, and the percent of the total specifically bound radioactivity was measured from the supernatant. No binding of the compound I to hydroxyapatite was found at up to 500 μM concentration (Table 3).

[6] = Binding to bone mineral (hydroxyapatite crystals, 14C-clodronate); conditions: for Binding to bone mineral: two hours; for Binding to hydroxyapatite (in words): up to 500 μM, physiological pH, in vitro
Method: as §3

[7] = listed as [(2-pyridinylamino)methylidene]bisphosphonic acid tetraethylester

CCOP(=O)(OCC)C(Nc1ccccn1)P(=O)(OCC)OCC [I, [(2-pyridinylamino)methylidene]bisphosphonic acid tetraethylester]
Inhibition of tetracycline excretion ([1]; 1 mg/kg s.c. daily for six days): 12.2 (6.4) %
Inhibition of tetracycline excretion ([1]; 10 mg/kg s.c. daily for six days): 19.8 (5.9) %
Inhibition of tetracycline excretion ([1]; 100 mg/kg s.c. daily for six days): 50.0 (6.1) %
Inhibition of tetracycline excretion ([1]; 200 mg/kg s.c. daily for six days): 72.9 (2.6) %
Inhibition of excretion of radiolabeled tetracycline / spontaneous bone resorption (in words) [1, 7]: decreased spontaneous bone resorption
Inhibition of excretion of radiolabeled tetracycline / spontaneous bone resorption (in words) ([1]; listed as compound I): dose-dependently inhibited
Urinary excretion 0-24 h as parent compound ([2]; i.v., 114 mg/kg): 13.6 % of dose
Urinary excretion as a parent compound during 24 hours (in words) ([2]; intravenous dose, rats): Minor amounts
Absorption of the oral dose (in words) ([2]; oral, rats): About half
Urinary excretion 0-24 h as parent compound ([2]; p.o., 114 mg/kg): 7.8 % of dose
bioavailability at 24 h ([2]; rat, po, p.o. vs i.v., 114 mg/kg, urine 0-24 h, read-out: Bioavailability F from urinary excretion): 58%
dose excreted at 24 h ([2]; rat, iv, 114 mg/kg, i.v.): 14%
dose excreted at 24 h ([2]; rat, po, 114 mg/kg, p.o.): < 10%
Immobilized leg, femur total bone area ([3]; 1 mg/kg s.c. daily, n=4): 6.0 (1.3) %
Immobilized leg, femur total bone area ([3]; 75 mg/kg s.c. daily, n=5): 24.5 (2.5) %
Immobilized leg, femur total bone area ([3]; 200 mg/kg s.c. daily, n=7): 35.5 (1.7) %
Immobilized leg, femur total bone area ([3]; 37,5 mg/kg s.c. daily, n=5): 17.3 (2.0) %
Mineral apposition rate of cortical bone ([3]; rats, s.c., data not presented): No deleterious effects
Femoral bone area in the immobilized leg / bone loss prevention (in words) ([3]; rats, s.c., listed as [(2-pyridinylamino)methylidene]bisphosphonic acid tetraethylester): effective in preventing bone loss
Femoral bone area in the immobilized leg / bone loss prevention (in words) ([3]; rats, s.c., listed as compound I): increased dose-dependently femoral bone area in the immobilized leg
AUC(0-inf) ([4]; iv): 139000 ng·h/mL
bioavailability ([4]; po, p.o. vs i.v., 114 mg/kg, read-out: Bioavailability F from serum concentration data (AUC)): 44%
AUC(0-inf) ([4]; po): 60700 ng·h/mL
Inhibition of PTH-stimulated resorption, 100 (PTH - x)/PTH ([5]; 1 μmol/l, PTH 10 nM, three days culture): No inhibiton
Inhibition of PTH-stimulated resorption, 100 (PTH - x)/PTH ([5]; 10 μmol/l, PTH 10 nM, three days culture): No inhibition
Inhibition of PTH-stimulated resorption, 100 (PTH - x)/PTH ([5]; 100 μmol/l, PTH 10 nM, three days culture): No inhibition
inhibition at 1000 µM ([5]; Mus musculus, 72 h, 1000 μmol/l, PTH 10 nM, three days culture, (SE), read-out: Inhibition of PTH-stimulated resorption, 100 (PTH - x)/PTH): 12.9%
Inhibition of bone resorption in vitro, mice calvaria (in words) [5]: no inhibition of resorption in vitro was shown except at very high, unphysiological concentrations
Inhibition of bone resorption in vitro, mice calvaria (in words) [5, 7]: No effect
Binding to bone mineral ([6]; 5 μmol/l): No binding
Binding to bone mineral ([6]; 100 μmol/l): No binding
Binding to bone mineral ([6]; 200 μmol/l): No binding
Binding to bone mineral ([6]; 500 μmol/l): No binding
Binding to hydroxyapatite (in words) [6, 7]: did not show either any binding on hydroxyapatite crystals in vitro
Binding to hydroxyapatite (in words) ([6]; listed as compound I): No binding
